Test results as given in patent US12569498B2, “Methods and compositions for the prevention and treatment of ischemia reperfusion injury and infection” (CHILDREN'S NATIONAL MEDICAL CENTER, priority 2019, dated 2026).
“Also recorded” adds a separate entry of the source.

What was measured:
[1] = Testis weight vs contralateral testis 30 days after torsion (testicular atrophy); format: in vivo, CD1 mice; conditions: drug given an hour after the onset of torsion; 30 days after reperfusion; vs untreated
Procedure: (§1) Unilateral testicular torsion was induced in mature male CD1 mice by rotating the right testicle 720 degrees for 2 hours. Treatment with cytisine or varenicline was initiated one hour prior or one hour after the creation of testicular torsion. Testes were harvested 18 hours and 30 days following reperfusion. The acute inflammatory response was quantified with FACS analysis, […], reduced glutathione levels and quantification of the expression of IRI markers. Long term (30 day) outcomes were assessed by histologic evaluation, quantification of the expression of pro-fibrotic genes and measurement of testicular weight.
(§2) Mice underwent testicular torsion as previously described (Lysiak 2001). Briefly, mice were anesthetized with isoflurane over a heating pad. The right testis was delivered through a low scrotal incision and rotated counterclockwise 720 degrees to induce ischemia for 2 hours. […] All animals were injected with long-acting buprenorphine (0.1 mg/kg) for long-term pain control prior to being recovered from anesthesia. Mice were euthanized either 18 hours or 30 days following torsion. Mice kept for 30 days after surgery were weighed on a weekly basis.
(§3) Cytisine (Sigma-Aldrich, St. Louis, MO) was administered intraperitoneally at a dose of 0.1 μg/gram either 1 hour before torsion or 1 hour after torsion (1 hour prior to detorsion). Varenicline ([…]) was administered as an intraperitoneal injection one hour after the onset of torsion and then continued every 12 hours for a total of 4 doses.
The degree of testicular atrophy was determined by comparing the weight of the torsed testis to the contralateral control testis 30 days after reperfusion.

[2] = target: α4β2nAChR (Homo sapiens, UniProt P17787+P43681); conditions: systemic concentrations found with routine oral dosing in humans (Campling 2013); cited from earlier work
Chain of α4β2nAChR (P43681 29-627 limits assumed): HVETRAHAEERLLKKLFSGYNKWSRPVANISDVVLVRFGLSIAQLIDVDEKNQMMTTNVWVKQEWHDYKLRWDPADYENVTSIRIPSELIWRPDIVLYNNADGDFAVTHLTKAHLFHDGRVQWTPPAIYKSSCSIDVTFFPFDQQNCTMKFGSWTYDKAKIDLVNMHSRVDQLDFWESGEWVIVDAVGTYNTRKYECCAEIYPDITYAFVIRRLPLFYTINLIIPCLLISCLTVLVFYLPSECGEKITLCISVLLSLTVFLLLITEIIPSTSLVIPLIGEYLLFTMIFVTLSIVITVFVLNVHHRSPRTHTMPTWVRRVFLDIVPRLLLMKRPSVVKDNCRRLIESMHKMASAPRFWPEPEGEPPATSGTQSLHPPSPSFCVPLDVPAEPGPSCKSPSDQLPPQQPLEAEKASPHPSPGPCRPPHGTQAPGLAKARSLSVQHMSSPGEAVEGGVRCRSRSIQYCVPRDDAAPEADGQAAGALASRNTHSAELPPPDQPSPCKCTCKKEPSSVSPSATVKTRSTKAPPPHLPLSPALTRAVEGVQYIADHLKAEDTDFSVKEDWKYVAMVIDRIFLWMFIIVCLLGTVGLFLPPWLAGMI
Chain of α4β2nAChR (P17787 26-502): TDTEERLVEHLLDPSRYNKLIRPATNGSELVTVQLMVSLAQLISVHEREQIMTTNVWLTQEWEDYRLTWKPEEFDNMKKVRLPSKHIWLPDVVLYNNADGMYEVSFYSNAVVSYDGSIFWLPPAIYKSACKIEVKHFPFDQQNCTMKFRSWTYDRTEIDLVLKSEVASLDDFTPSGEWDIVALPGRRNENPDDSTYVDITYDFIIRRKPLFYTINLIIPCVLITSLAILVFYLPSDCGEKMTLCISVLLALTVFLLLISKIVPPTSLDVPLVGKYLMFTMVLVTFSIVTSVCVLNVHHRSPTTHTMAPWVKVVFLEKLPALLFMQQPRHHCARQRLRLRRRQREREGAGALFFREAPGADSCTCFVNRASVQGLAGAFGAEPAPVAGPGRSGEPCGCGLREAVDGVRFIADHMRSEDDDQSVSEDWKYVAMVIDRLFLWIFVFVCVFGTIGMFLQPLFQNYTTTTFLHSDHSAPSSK

[3] = system: IRI markers and pro-fibrotic genes in kidney after CFT073 uropathogenic Escherichia coli pyelonephritis; experiment: Quantitative PCR of kidney after acute pyelonephritis (IRI markers, pro-fibrotic genes); format: in vivo, C3H/HeOuJ mice
Procedure: Methods: Using an established murine model, pyelonephritis was induced by inoculating the bladder of C3H/HeOuJ mice with a uropathogenic E. coli. Five days following inoculation, half of the animals were treated with 5 days of ceftriaxone and half were treated with 5 days of ceftriaxone plus varenicline in the initial 48 hours. Histology and the expression of ischemia reperfusion injury markers and pro-fibrotic genes were evaluated at 14 and 30 days following the initial infection.
To initiate pyelonephritis, the bladder was catheterized with a 24-gauge angiocatheter and a total volume of 100 μL of a phosphate-buffered saline containing […] colony forming units (CFU) of CFT073 uropathogenic Escherichia coli (UPEC) was then instilled.
[…] Real-time PCR was performed using QuantStudio 7 Flex (Applied Biosystems, Foster City, CA) with Software Quantstudio Real-Time PCR Software (Thermo Fisher Scientific, Waltham, MA) and TaqMan Gene Expression Assays (Applied Biosystems, Foster City, CA). Standard TaqMan primers were used for Complement 1 q B chain (C1qb, Mm01179619_m1), Lipocalin 2 (Lcn2, Mm01324470_m1), Serpina (Mm04213318_m1), Cathepsin S (Ctss, Mm01255859_m1), Vascular cell adhesion molecule 1 (Vcam1, Mm01320970_m1), Interleukin 1 beta (IL-1β, Mm00434228_m1), and Nitric oxide synthase 2 (Nos2, Mm00440502_m1) as short-term IRI markers and Collagen 1 (Col1, Mm00801666_g1), Collagen 3 (Col3, Mm01254476_m1), Vimentin (Vim, Mm01333430_m1), and Smooth muscle actin (Acta, Mm00725412_s1) to evaluate long-term fibrosis.

[4] = system: pro-fibrotic genes Col1, Col3, Vim, SMA; experiment: RT-PCR of pro-fibrotic markers in testis 30 days after torsion; format: in vivo, CD1 mice; conditions: for relative expression of collagen 1 (Col1) / relative expression of collagen 3 (Col3) / relative expression of smooth muscle actin (Sma) / relative expression of vimentin (Vim): 30 days following torsion, vs untreated
Procedure: as §2, §3
(§4) RNA was isolated from testis tissue using RNEasy mini kit (Qiagen, Hilden, Germany) using the manufacturer's protocol. RNA concentration was measured with Nanodrop 8000 (Thermo Scientific, Waltham, MA). cDNA was synthesized using Superscript First-Strand Synthesis system for RT-PCR (Invitrogen, Carlsbad, CA) on a GeneAmp PCR System 9700 (Applied Biosystems, Foster City, CA) Real-Real-time PCR was performed using QuantStudio 7 Flex (Applied Biosystems, Foster City, CA). Software Quantstudio Real-Time PCR Software (Thermo Fisher Scientific, Waltham, MA). TaqMan Gene Expression Assays (Applied Biosystems, Foster City, CA). Standard TaqMan primers were used for Col1, Col3, Vim, SMA.

[5] = system: NFKB targets (TLR4, NLRP3, Trim63, Fbxo32); experiment: RT-PCR of downstream NFKB target genes after testicular torsion; format: in vivo, CD1 mice; conditions: testis, 18 hours following testicular torsion
Procedure: as §2, §3, §4
NFKB signaling results in the upregulation of several downstream targets, which propagate the inflammatory cascade. To determine if varenicline administration reduced activation of the NFKB axis, quantitative PCR of established downstream NFKB targets was performed.

[6] = system: CD45+ immune cells in the torsed testis; experiment: Flow cytometry of CD45+ immune cell infiltrate in testis after testicular torsion; format: in vivo, CD1 mice; conditions: varenicline 1 grm/kg i.p. 1 hour after onset of torsion; 48 hours after reperfusion; P≤0.0001
Procedure: as §1
Mice underwent testicular torsion as previously described (Lysiak 2001). Briefly, mice were anesthetized with isoflurane over a heating pad. […]
Eighteen hours after reperfusion of the testis in the cytisine group and 48 hours after reperfusion in the varenicline group, bilateral testes were harvested, homogenized and digested with digestion solution containing 0.5% FBS, 20 mM HEPES, RPMI Medium, 0.057 U/ml DNase I, 1 mg/ml collagenase b. Cells were washed, counted with a hemocytometer and 1 million then diluted to 1 million cells per mL. […] For each sample 300,000 live cells were counted using BD FACSCalibur (BD Biosciences, San Jose, CA) and analyzed with FlowJo 9.0 software (TreeStar, Ashland, OR).

SMILES: c1cnc2cc3c(cc2n1)C1CNCC3C1 [varenicline, 7,8,9, 10-tetrahydro-6, 10-methano-6H-pyrazino[2,3-h][3]benzazepine]
- testicular atrophy (weight of torsed testis vs contralateral control testis) [1]: limited long term testicular atrophy; also recorded: preserved testicular weight
- α4β2nAChR agonism [2]: strong α4β2nAChR and α7nAChR agonist
- expression of established mediators (markers) of renal ischemia reperfusion injury ([3]; 14 days after inoculation, 5 days after completion of antibiotics, varenicline 1 mg/kg i.p. twice daily first 48 hours plus ceftriaxone vs ceftriaxone alone, difference not statistically significant): decreased expression of IRI markers
- expression of pro-fibrotic genes (Col1, Col3, acta, vimentin) in kidney ([3]; 30 days following inoculation, 21 days after completion of antibiotics, varenicline plus ceftriaxone vs ceftriaxone alone): trend towards a decreased expression of pro-fibrotic genes; also recorded: long-term decrease; also recorded: decrease in expression of genes responsible for renal fibrosis
- expression of vimentin in kidney ([3]; kidneys at 30 days, p-value of 0.03): Decrease in expression of vimentin
- relative expression of collagen 1 (Col1) [4]: reduced the expression; also recorded: significantly decreased
- relative expression of collagen 3 (Col3) [4]: reduced the expression; also recorded: significantly decreased
- relative expression of smooth muscle actin (Sma) [4]: reduced the expression; also recorded: significantly decreased
- relative expression of vimentin (Vim) [4]: reduced the expression; also recorded: significantly decreased
- relative expression of collagen 1 (Col1) ([4]; listed as Varenicline): significantly decreased
- relative expression of collagen 3 (Col3) ([4]; listed as Varenicline): significantly decreased
- relative expression of smooth muscle actin (Sma) ([4]; listed as Varenicline): significantly decreased
- relative expression of vimentin (Vim) ([4]; listed as Varenicline): significantly decreased
- expression of pro-fibrotic genes / genetic markers of testicular fibrosis ([4]; long term (30 day) outcome, genes not itemised): decreased histologic and genetic markers of testicular fibrosis
- expression of Fbxo32 ([5]; p<0.0001): significantly decreased the expression
- expression of TLR4 ([5]; p<0.01): significantly decreased the expression
- expression of NLRP3 ([5]; p<0.05): significantly decreased the expression
- expression of Trim63 ([5]; p≤0.034): significantly decreased the expression
- acute immune cell (leukocyte) infiltrate in testis [6]: decreased leukocyte infiltrate; also recorded: reduction in the acute immune cell infiltrate
